Measured values as given in PubChem BioAssay (NCI).
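Compound exposure: 48 hours, 5 concentrations, 96-well plates. The concentration for 50% growth inhibition is given as GI50. TGI denotes the concentration required for complete inhibition of growth.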

What was measured:
Experiment in all cases: growth of human tumour cells (NCI), 48 h
SK-MEL-28 melanoma = system: SK-MEL-28 melanoma
SNB-19 CNS = system: SNB-19 CNS
HL-60(TB) leukemia = system: HL-60(TB) leukemia
CAKI-1 renal = system: CAKI-1 renal
U251 CNS = system: U251 CNS
SF-295 CNS = system: SF-295 CNS
NCI-H522 lung = system: NCI-H522 lung
A498 renal = system: A498 renal
NCI/ADR-RES ovarian = system: NCI/ADR-RES ovarian
DU-145 prostate = system: DU-145 prostate

Row | SMILES | GI50 (SK-MEL-28 melanoma) [µM] | TGI (SK-MEL-28 melanoma) [µM] | GI50 (SNB-19 CNS) [µM] | TGI (SNB-19 CNS) [µM] | GI50 (HL-60(TB) leukemia) [µM] | TGI (HL-60(TB) leukemia) [µM] | GI50 (CAKI-1 renal) [µM] | TGI (CAKI-1 renal) [µM] | GI50 (U251 CNS) [µM] | TGI (U251 CNS) [µM] | GI50 (SF-295 CNS) [µM] | TGI (SF-295 CNS) [µM] | GI50 (NCI-H522 lung) [µM] | TGI (NCI-H522 lung) [µM] | TGI (A498 renal) [µM] | GI50 (NCI/ADR-RES ovarian) [µM] | TGI (NCI/ADR-RES ovarian) [µM] | GI50 (DU-145 prostate) [µM] | TGI (DU-145 prostate) [µM] | GI50 (A498 renal) [µM]
1 | CC(=O)OCC(CC[CH2][Sn]([Cl])([Cl])[c]1ccccc1)OC(C)=O (stereo unspecified) | 40.9 | 58.6 | 27.7 | 74.6 | 16.8 | 42.6 | 14.6 | 30.9 | 20.4 | 38.5 | 24.5 | 60 | 41.1 | 55.6 | – | – | – | – | – | –
2 | Cn1nc(-c2ccccc2)c(C(=O)/C=C/c2ccc(Cl)cc2)c(N2CCOCC2)c1=O | – | 7.64 | – | 29.3 | – | 4.38 | – | 19.7 | – | 12.8 | – | 4.79 | – | 9.46 | 15.8 | – | – | – | – | –
3 | O=C1C(Nc2cccc(O)c2)=C(Sc2ccccc2)C(=O)N1Cc1ccccc1 | 11.8 | 26.1 | 13 | 27 | – | – | 21.6 | 55.2 | 13 | 35.4 | 13.5 | 50.2 | 5.75 | 23.9 | – | 11.5 | 31.9 | 16.2 | 33.3 | –
4 | O=C(Cc1ccccc1)C(c1ccccc1)S(=O)(=O)c1ccccc1 (stereo unspecified) | – | > 100 | – | > 100 | – | > 100 | – | > 100 | – | > 100 | – | > 100 | – | > 100 | > 100 | – | – | – | – | –
5 | CCOC(=O)C(Cc1ccc(N(CCCl)CCCl)cc1)NC(=O)C(Cc1ccccc1)NC(C)=O (stereo unspecified) | – | – | – | > 0.578 | – | > 0.264 | – | 0.419 | – | > 0.787 | – | > 0.501 | – | – | > 0.414 | – | > 0.618 | – | > 1 | –
6 | Cc1ccc(C2=Nc3ccccc3SC(c3cccc4c3OCO4)C2)cc1 (stereo unspecified) | – | 32.9 | – | 30.7 | – | 39 | – | 30 | – | – | – | 45.6 | – | 31 | 43.6 | – | – | – | – | –
7 | c1ccc2c(CNCCN3CCNCC3)c3ccccc3c(CNCCN3CCNCC3)c2c1 | 42.8 | > 100 | 20.7 | > 100 | – | – | > 100 | > 100 | 14.8 | 40.3 | 17.8 | 43.5 | 13 | 35.9 | 60.7 | > 100 | > 100 | 7.26 | 33.2 | 18.3
8 | C[P+]1(c2ccccc2)CCCCC1 | – | > 100 | – | > 100 | – | – | – | > 100 | – | > 100 | – | > 100 | – | – | > 100 | – | – | – | – | –
9 | Cc1cc2c(c(=O)o1)C1=S(SC(c3ccccc3)=C1)S2 (stereo unspecified) | – | > 100 | – | > 100 | – | – | – | – | – | 57.2 | – | 88 | – | > 100 | 34 | – | > 100 | – | > 100 | –
10 | N#C/C(=C1\OC(=N)C(c2ccc(Cl)cc2Cl)C1=O)c1ccc(Cl)cc1Cl (stereo unspecified) | – | > 100 | – | > 100 | – | > 100 | – | > 100 | – | – | – | > 100 | – | > 100 | > 100 | – | – | – | – | –
11 | O=C(CO)C1CC2C=CC1C2 (stereo unspecified) | – | > 100 | – | > 100 | – | > 100 | – | > 100 | – | > 100 | – | > 100 | – | > 100 | > 100 | – | – | – | – | –
12 | CC(N)CC(=O)O (stereo unspecified) | – | > 5000 | – | – | – | > 5000 | – | – | – | > 5000 | – | > 5000 | – | > 5000 | > 5000 | – | – | – | – | –
13 | Cc1ccc(NC(=O)/C(C#N)=C/c2ccccc2)c(C)c1 | – | > 100 | – | > 100 | – | > 100 | – | > 100 | – | > 100 | – | > 100 | – | > 100 | > 100 | – | – | – | – | –
14 | C=CC[N+]1(CC)CCN=C1CCCCCCCCCCCCCCCCC (stereo unspecified) | 0.816 | 2.04 | – | – | 0.562 | 2.07 | 1.2 | 2.63 | 0.386 | 1.47 | 0.249 | 0.936 | – | – | 2.86 | – | – | 0.659 | 2.02 | 1.44
15 | CC(C)OC(=O)C1Cc2c([nH]c3ccccc23)C(c2ccccc2)N1 (stereo unspecified) | – | > 100 | – | > 100 | – | > 100 | – | > 100 | – | > 100 | – | > 100 | – | > 100 | > 100 | – | – | – | – | –
16 | C=C1C=CC2(Br)OC3CC(C)(Cl)C(Br)CC13C2(C)C (stereo unspecified) | – | 54.4 | – | 88.3 | – | 33.9 | – | > 100 | – | 35.3 | – | 45.5 | – | 30.1 | 46.5 | – | – | – | – | –

Row | SMILES | GI50 (SK-MEL-28 melanoma) [µM] | TGI (SK-MEL-28 melanoma) [µM] | GI50 (SNB-19 CNS) [µM] | TGI (SNB-19 CNS) [µM] | GI50 (HL-60(TB) leukemia) [µM] | TGI (HL-60(TB) leukemia) [µM] | GI50 (CAKI-1 renal) [µM] | TGI (CAKI-1 renal) [µM] | GI50 (U251 CNS) [µM] | TGI (U251 CNS) [µM] | GI50 (SF-295 CNS) [µM] | TGI (SF-295 CNS) [µM] | GI50 (NCI-H522 lung) [µM] | TGI (NCI-H522 lung) [µM] | TGI (A498 renal) [µM] | GI50 (NCI/ADR-RES ovarian) [µM] | TGI (NCI/ADR-RES ovarian) [µM] | GI50 (DU-145 prostate) [µM] | TGI (DU-145 prostate) [µM] | GI50 (A498 renal) [µM]
17 | O=C1C(Sc2ccc3ccccc3c2)=C(Sc2ccc3ccccc3c2)C(=O)c2ccccc21 | – | 28.5 | – | 20.3 | – | 11.2 | – | – | – | 19.1 | – | – | – | 10.6 | 33.4 | – | 44.9 | – | 84.4 | –
18 | N#CNC1=NC(N)C(c2nc3ccccc3[nH]2)=C(CCCC(=O)Nc2cccc([N+](=O)[O-])c2)N1 (stereo unspecified) | – | > 100 | – | > 100 | – | > 100 | – | > 100 | – | – | – | > 100 | – | > 100 | – | – | – | – | – | –
19 | Clc1nc(Cl)c2ncn(CCOCCn3cnc4c(Cl)nc(Cl)nc43)c2n1 | 0.199 | 0.362 | 0.448 | 0.968 | – | – | 0.197 | 0.453 | 0.174 | 0.313 | 1.33 | 2.83 | 0.684 | 2.22 | 3.2 | 0.216 | 0.424 | 0.196 | 0.343 | 1.72
20 | CCOC(=O)C(CCCNC(=O)OC(C)(C)C)N(Cc1ccc(OC)cc1OC)C(=O)CC(=O)CP(=O)(OCC)OCC (stereo unspecified) | – | > 100 | – | > 100 | – | > 100 | – | > 100 | – | > 100 | – | > 100 | – | > 100 | > 100 | – | – | – | – | –
21 | COc1cc(/C=C/C(=O)O[C@H]2[C@H](O[C@@H]3O[C@@H](C)[C@H](O)[C@@H](O)[C@H]3O)[C@@H](O)[C@H](OCCc3ccc(O)c(O)c3)O[C@@H]2COC2OCC(O)(CO)C2O)ccc1O (stereo partly specified) | > 100 | > 100 | > 100 | > 100 | > 100 | > 100 | > 100 | > 100 | > 100 | > 100 | > 100 | > 100 | > 100 | > 100 | – | > 100 | > 100 | > 100 | > 100 | –
22 | [Cl][Cu][Cl] | > 10 | > 10 | > 10 | > 10 | > 10 | > 10 | > 10 | > 10 | > 10 | > 10 | 3.6 | > 10 | > 10 | > 10 | – | > 10 | > 10 | > 10 | > 10 | –
23 | C/C(=N\NC(=O)C(N)=O)c1c(O)cc(C)oc1=O | – | > 100 | – | > 100 | – | > 100 | – | – | – | > 100 | – | > 100 | – | – | > 100 | – | – | – | – | –
24 | CN(C)CCCn1c2c(c3cc4c(cc3c1=O)OCO4)C(=O)c1ccccc1-2 | 4.68 | > 100 | 2.84 | > 100 | 3.35 | 20.4 | 3.01 | 9.4 | 0.081 | 3.5 | 3.12 | 12.5 | 4.59 | 35.2 | – | – | – | 3.08 | > 27.5 | –
25 | Cc1ccc(S(=O)(=O)NC(=O)OC23COCN2COC3)cc1 | – | > 100 | – | > 100 | – | – | – | > 100 | – | > 100 | – | > 100 | – | > 100 | > 100 | – | > 100 | – | > 100 | –
26 | C=CC(=O)N[C@@H](/C=C/C(=O)OCC)Cc1ccc(-c2cc(Cl)cc(Cl)c2)cc1 | 18.1 | 79.8 | 16.5 | > 100 | 8.22 | 60 | 21.5 | > 100 | 17.2 | > 100 | 13.5 | 83.5 | 7.6 | 24.9 | – | 11.9 | 73.3 | 12.9 | 64.2 | –
27 | N#CC1C(N)=NNC12Nc1ccccc1S2 (stereo unspecified) | – | – | 28.6 | > 100 | 42.5 | > 100 | 23.4 | > 100 | 5.84 | 20.3 | 17.2 | 64.2 | 7.8 | 29.7 | – | 17.7 | 54.1 | 15.6 | 55.3 | –
28 | COc1ccc(OC)c(Cc2cnc3nc(N)nc(N)c3c2C)c1 | – | > 51 | – | 55.4 | – | 18.7 | – | > 81.9 | – | > 44.1 | – | 41.9 | – | 21.8 | – | – | > 100 | – | > 59.8 | –
29 | CC1CCC2(C)C(CC=C(C=O)C2(O)C=O)C12CO2 (stereo unspecified) | – | 3.97 | – | 22.5 | – | 2.92 | – | 11 | – | 9.37 | – | 13.9 | – | 5.89 | 20.1 | – | – | – | – | –
30 | Cc1cc(O)c2c3c(ccc2c1)C(=O)c1c(O)cccc1C3=O | – | > 100 | – | > 100 | – | – | – | > 100 | – | > 100 | – | > 100 | – | > 32.3 | > 100 | – | > 100 | – | > 100 | –
31 | O=C(c1c(O)cc(O)cc1O)C1Cc2ccccc21 (stereo unspecified) | – | – | – | > 100 | – | > 100 | – | > 100 | – | > 100 | – | > 100 | – | > 100 | > 100 | – | – | – | – | –
